From patent US20240148821A1, “PHARMACEUTICAL USE OF CYCLIC PEPTIDE COMPOUND” (CHUGAI SEIYAKU KABUSHIKI KAISHA, priority 2021, published 2024)
Numbered stars: 1 amine (or outer) side, 2 acyl side, 3 side chain; on linkers, the order of the positions; unused ones are H or OH. Bridge positions count the residues as written; N and C are the ends. Square brackets hold non-standard residues; d marks the D form. Peptide text beside a SMILES is read from it. * marks the point of attachment. hPhe(3,5-F2-4-CF3) = N[C@@H](CCc1cc(F)c(C(F)(F)F)c(F)c1)C(=O)O; hPhe(3-Cl-4-CF3) = N[C@@H](CCc1ccc(C(F)(F)F)c(Cl)c1)C(=O)O; hPhe(3-F,4-CF3) = N[C@@H](CCc1ccc(C(F)(F)F)c(F)c1)C(=O)O; hPhe(4-CF3) = N[C@@H](CCc1ccc(C(F)(F)F)cc1)C(=O)O; NEtPhe(4-Me) = CCN[C@@H](Cc1ccc(C)cc1)C(=O)O; NMePhe(4-Cl) = CN[C@@H](Cc1ccc(Cl)cc1)C(=O)O; NMePhe(4-Me) = CN[C@@H](Cc1ccc(C)cc1)C(=O)O; NMePhe(4-F) = CN[C@@H](Cc1ccc(F)cc1)C(=O)O; NMedβ3hAla = C[C@H](CC(=O)[*:2])N(C)[*:1]; NMeGly(cPent) = CN[C@H](C(=O)O)C1CCCC1; NMeGly(cBu) = CN[C@H](C(=O)O)C1CCC1; NMeCha = CN[C@@H](CC1CCCCC1)C(=O)O; Hyp = O=C(O)[C@@H]1C[C@@H](O)CN1; NMeAhp(2) = CCCCC[C@H](NC)C(=O)O; NMeChg = CN[C@H](C(=O)O)C1CCCCC1; NMeI = CC[C@H](C)[C@H](NC)C(=O)O; NMeD = CN[C@@H](CC(=O)O)C(=O)O; NMeL = CN[C@@H](CC(C)C)C(=O)O; NMeV = CN[C@H](C(=O)O)C(C)C; d(β3hA) = C[C@@H](N)CC(=O)O; Azetidin(1-yl) = C1CN(*)C1; NMeS = CN[C@@H](CO)C(=O)O; Morpholide = C1CN(*)CCO1; NMeA = CN[C@@H](C)C(=O)O; NMeAib = CNC(C)(C)C(=O)O; Nle = CCCC[C@H](N)C(=O)O; Piperidide = C1CCN(*)CC1; Pra = C#CC[C@H](N)C(=O)O; Pyrrolidide = C1CCN(*)C1; dNMeA = CN[C@H](C)C(=O)O; Ac5c = NC1(C(=O)O)CCCC1; Aze = O=C(O)[C@@H]1CCN1; Aib = CC(C)(N)C(=O)O; NEtG = CCNCC(=O)O; Sar = CNCC(=O)O

Tests used:
[1] = target: protein-protein interaction between Kras and SOS1 (biotin-tagged human Kras loaded with GDP, His-tagged human SOS1) (Homo sapiens (Human), UniProt P01116, G12D); experiment: Protein-protein interaction inhibition between Kras and SOS1 (KrasG12D-SOS PPI) using AlphaScreen; assay type: biochemical; settings: AlphaScreen; biotin-tagged human Kras loaded with GDP, His-tagged human SOS1; read-out: KRAS G12D-SOS PPI IC50;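 further: kras produced in E. coli, Ni-coupled donor beads and streptavidin acceptor beads, excitation 680 nm with emission detected at 520–620 nm via singlet oxygen transfer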
[2] = tested on: Human pancreatic cancer cell line AsPC-1 (G12D mutation Kras); experiment: AsPC-1 cell growth inhibition (AsPC-1 CGI); assay type: cell-based; settings: read-out: AsPC-1 cell growth inhibition, 50% growth inhibitory concentration (IC50 value); 96 hours, CellTiter-Glo, values classified in ranges

Compound	IC50 [1] [nM]	IC50 [2] [nM]
C#CC[C@@H]1NC(=O)[C@H](CC(C)C)N(C)C(=O)C[C@@H](C(=O)N2CCCCC2)N(C)C(=O)[C@H](C(C)C)N(C)C(=O)C2(CCCC2)NC(=O)[C@@H]2CCCN2C(=O)[C@H](CCc2ccc(C(F)(F)F)c(Cl)c2)NC(=O)CN(C)C(=O)[C@H](CC2CCCCC2)N(C)C(=O)[C@@H]2CCN2C(=O)[C@H](C)N(C)C1=O [Compound 946] ([NMeL][Pra][NMeA][Aze][NMeCha][Sar][hPhe(3-Cl-4-CF3)]P[Ac5c][NMeV][NMeD]-Piperidide; lactam N-11)	7.5	> 500
CCCCC[C@H]1C(=O)N[C@@H]([C@@H](C)CC)C(=O)N(C)[C@@H](C)C(=O)N2CC[C@H]2C(=O)N(C)[C@@H](CC2CCCCC2)C(=O)N(C)CC(=O)N[C@@H](CCc2ccc(C(F)(F)F)c(Cl)c2)C(=O)N2CCC[C@H]2C(=O)NC2(CCCC2)C(=O)N(C)[C@@H](C2CCCC2)C(=O)N(C)[C@H](C(=O)N2CCC2)CC(=O)N1C [Compound 144] ([NMeAhp(2)]I[NMeA][Aze][NMeCha][Sar][hPhe(3-Cl-4-CF3)]P[Ac5c][NMeGly(cPent)][NMeD]-{Azetidin(1-yl)}; lactam N-11)	1.1	≤ 20
CC(C)C[C@H]1C(=O)N[C@@H](C(C)C)C(=O)N(C)CC(=O)N(C)CC(=O)N(C)[C@@H](CC2CCCCC2)C(=O)N(C)CC(=O)N[C@@H](CCc2ccc(C(F)(F)F)c(F)c2)C(=O)N(C)[C@@H](CC(C)C)C(=O)NC(C)(C)C(=O)N(C)[C@@H](CC(C)C)C(=O)N[C@H](C)CC(=O)N1C [Compound 1511] (cyclo([Aib][NMeL][d(β3hA)][NMeL]V[Sar][Sar][NMeCha][Sar][hPhe(3-F,4-CF3)][NMeL]))	190	> 500
CC[C@H](C)[C@@H]1NC(=O)[C@H](CC(C)C)N(C)C(=O)C[C@@H](C(=O)N2CCOCC2)N(C)C(=O)[C@H](C2CCCC2)N(C)C(=O)C2(CCCC2)NC(=O)[C@@H]2CCCN2C(=O)[C@H](CCc2ccc(C(F)(F)F)c(Cl)c2)NC(=O)CN(CC)C(=O)[C@H](CC2CCCCC2)N(C)C(=O)[C@@H]2CCN2C(=O)[C@H](C)N(C)C1=O [Compound 1272] ([NMeL]I[NMeA][Aze][NMeCha][NEtG][hPhe(3-Cl-4-CF3)]P[Ac5c][NMeGly(cPent)][NMeD]-Morpholide; lactam N-11)	2	≤ 20
CCCC[C@@H]1NC(=O)[C@H](CC(C)C)N(C)C(=O)C[C@@H](C(=O)N2CCCCC2)N(C)C(=O)[C@H](C(C)C)N(C)C(=O)C2(CCCC2)NC(=O)[C@@H]2CCCN2C(=O)[C@H](CCc2ccc(C(F)(F)F)c(Cl)c2)NC(=O)CN(C)C(=O)[C@H](CC2CCCCC2)N(C)C(=O)[C@@H]2CCN2C(=O)[C@H](C)N(C)C1=O [Compound 1823] ([NMeL][Nle][NMeA][Aze][NMeCha][Sar][hPhe(3-Cl-4-CF3)]P[Ac5c][NMeV][NMeD]-Piperidide; lactam N-11)	59	> 500
CCCC[C@@H]1NC(=O)[C@H](CCc2ccc(C(F)(F)F)c(F)c2)NC(=O)CN(C)C(=O)[C@H](Cc2ccc(Cl)cc2)N(C)C(=O)CN(C)C(=O)CN(C)C(=O)[C@H]([C@@H](C)CC)NC(=O)[C@H](CC(C)C)N(C)C(=O)C[C@@H](C)N(C)C(=O)[C@H](CC(C)C)NC(=O)C(C)(C)N(C)C1=O [Compound 165] (cyclo(I[Sar][Sar][NMePhe(4-Cl)][Sar][hPhe(3-F,4-CF3)][Nle][NMeAib]L[NMedβ3hAla][NMeL]))	41	> 500
CC[C@H](C)[C@@H]1NC(=O)[C@H](C)N(C)C(=O)C[C@@H](C(=O)N2CCCCC2)N(C)C(=O)[C@H](C(C)C)N(C)C(=O)C2(CCCC2)NC(=O)[C@@H]2CCCN2C(=O)[C@H](CCc2ccc(C(F)(F)F)c(Cl)c2)NC(=O)[C@@H](C)N(C)C(=O)[C@H](Cc2ccc(F)cc2)N(C)C(=O)[C@@H]2CCN2C(=O)[C@H](C)N(C)C1=O [Compound 1816] ([NMeA]I[NMeA][Aze][NMePhe(4-F)][dNMeA][hPhe(3-Cl-4-CF3)]P[Ac5c][NMeV][NMeD]-Piperidide; lactam N-11)	12	> 500
CC[C@H](C)[C@@H]1NC(=O)[C@H](C)N(C)C(=O)C[C@@H](C(=O)N2CCCC2)N(C)C(=O)[C@H](C(C)C)N(C)C(=O)C2(CCCC2)NC(=O)[C@@H]2CCCN2C(=O)[C@H](CCc2ccc(C(F)(F)F)c(Cl)c2)NC(=O)[C@@H](C)N(C)C(=O)[C@H](CC2CCCCC2)N(C)C(=O)[C@@H]2CCN2C(=O)[C@H](C)N(C)C1=O [Compound 1827] ([NMeA]I[NMeA][Aze][NMeCha][dNMeA][hPhe(3-Cl-4-CF3)]P[Ac5c][NMeV][NMeD]-Pyrrolidide; lactam N-11)	6.6	> 500
CC[C@H](C)[C@@H]1NC(=O)[C@H](C)N(C)C(=O)C[C@@H](C)NC(=O)[C@H](CC(C)C)N(C)C(=O)C(C)(C)NC(=O)[C@H](CC(C)C)N(C)C(=O)[C@H](CCc2ccc(C(F)(F)F)cc2)NC(=O)CN(C)C(=O)[C@H](Cc2ccc(Cl)cc2)N(C)C(=O)CN(C)C(=O)CN(C)C1=O [Compound 788] (cyclo([Aib][NMeL][d(β3hA)][NMeA]I[Sar][Sar][NMePhe(4-Cl)][Sar][hPhe(4-CF3)][NMeL]))	13	> 500
CCO[C@@H]1C[C@H]2C(=O)NC3(CCCC3)C(=O)N(C)[C@@H](C3CCCC3)C(=O)N(C)[C@H](C(=O)N(C)C)CC(=O)N(C)[C@@H](CC(C)C)C(=O)N[C@@H]([C@@H](C)CC)C(=O)N(C)[C@@H](C)C(=O)N3CC[C@H]3C(=O)N(C)[C@@H](CC3CCCCC3)C(=O)N(C)CC(=O)N[C@@H](CCc3ccc(C(F)(F)F)c(F)c3)C(=O)N2C1 [Compound 1231] ([NMeL]I[NMeA][Aze][NMeCha][Sar][hPhe(3-F,4-CF3)][Hyp](Et)[Ac5c][NMeGly(cPent)][NMeD]-NMe2; lactam N-11)	0.59	≤ 20
CC[C@H](C)[C@@H]1NC(=O)[C@H](CC(C)C)N(C)C(=O)C[C@@H](C(=O)N2CCCCC2)N(C)C(=O)[C@H](C(C)C)N(C)C(=O)C2(CCCC2)NC(=O)[C@@H]2CCCN2C(=O)[C@H](CCc2ccc(C(F)(F)F)c(Cl)c2)NC(=O)CN(C)C(=O)[C@H](COC)N(C)C(=O)[C@@H]2CCN2C(=O)[C@H](C)N(C)C1=O [Compound 487] ([NMeL]I[NMeA][Aze][NMeS](Me)[Sar][hPhe(3-Cl-4-CF3)]P[Ac5c][NMeV][NMeD]-Piperidide; lactam N-11)	5.9	> 500
CC[C@H](C)[C@@H]1NC(=O)[C@H](CC(C)C)NC(=O)C[C@@H](C)NC(=O)[C@H](C2CCCC2)N(C)C(=O)C2(CCCC2)NC(=O)[C@@H]2CCCN2C(=O)[C@H](CCc2ccc(C(F)(F)F)c(Cl)c2)NC(=O)CN(C)C(=O)[C@H](Cc2ccc(C)cc2)N(C)C(=O)[C@@H]2CCN2C(=O)[C@H](C)N(C)C1=O [Compound 648] (cyclo([Ac5c][NMeGly(cPent)][d(β3hA)]LI[NMeA][Aze][NMePhe(4-Me)][Sar][hPhe(3-Cl-4-CF3)]P))	3.2	> 500
CCO[C@@H]1C[C@H]2C(=O)NC3(CCCC3)C(=O)N(C)[C@@H](C3CCCCC3)C(=O)N(C)[C@H](C(=O)N3CCCC3)CC(=O)N(C)[C@@H](C3CCC3)C(=O)N[C@@H]([C@@H](C)CC)C(=O)N(C)CC(=O)N(C)CC(=O)N(C)[C@@H](CC3CCCCC3)C(=O)N(C)CC(=O)N[C@@H](CCc3cc(F)c(C(F)(F)F)c(F)c3)C(=O)N2C1 [Compound 1144] ([NMeGly(cBu)]I[Sar][Sar][NMeCha][Sar][hPhe(3,5-F2-4-CF3)][Hyp](Et)[Ac5c][NMeChg][NMeD]-Pyrrolidide; lactam N-11)	0.49	≤ 20
CC[C@H](C)[C@@H]1NC(=O)[C@H](CC(C)C)N(C)C(=O)C[C@@H](C(=O)N2CCOCC2)N(C)C(=O)[C@H]([C@@H](C)CC)N(C)C(=O)C2(CCCC2)NC(=O)[C@@H]2CCCN2C(=O)[C@H](CCc2ccc(C(F)(F)F)c(F)c2)NC(=O)CN(C)C(=O)[C@H](Cc2ccc(C)cc2)N(C)C(=O)[C@@H]2CCN2C(=O)[C@H](C)N(C)C1=O [Compound 47] ([NMeL]I[NMeA][Aze][NMePhe(4-Me)][Sar][hPhe(3-F,4-CF3)]P[Ac5c][NMeI][NMeD]-Morpholide; lactam N-11)	1.5	≤ 20
CC[C@H](C)[C@@H]1NC(=O)[C@H](CC(C)C)N(C)C(=O)C[C@@H](C)N(C)C(=O)[C@H]([C@@H](C)CC)NC(=O)C(C)(C)N(C)C(=O)[C@H](CC(C)C)NC(=O)[C@H](CCc2ccc(C(F)(F)F)c(F)c2)NC(=O)CN(C)C(=O)[C@H](Cc2ccc(Cl)cc2)N(C)C(=O)CN(C)C(=O)CN(C)C1=O [Compound 800] (cyclo(I[Sar][Sar][NMePhe(4-Cl)][Sar][hPhe(3-F,4-CF3)]L[NMeAib]I[NMedβ3hAla][NMeL]))	86	> 500
CC[C@H](C)[C@@H]1NC(=O)[C@H](CC(C)C)N(C)C(=O)C[C@@H](C(=O)N2CCOCC2)N(C)C(=O)[C@H]([C@@H](C)CC)N(C)C(=O)C2(CCCC2)NC(=O)[C@@H]2CCCN2C(=O)[C@H](CCc2ccc(C(F)(F)F)c(Cl)c2)NC(=O)CN(C)C(=O)[C@H](Cc2ccc(C)cc2)N(CC)C(=O)[C@@H]2CCN2C(=O)[C@H](C)N(C)C1=O [Compound 1322] ([NMeL]I[NMeA][Aze][NEtPhe(4-Me)][Sar][hPhe(3-Cl-4-CF3)]P[Ac5c][NMeI][NMeD]-Morpholide; lactam N-11)	0.82	≤ 20
